Experimental data taken from ChEMBL document CHEMBL1122421 (J Med Chem, 1983).

Biological target: Opioid receptor (Rattus norvegicus, UniProt P33533+P34975+P33535)
Test: Binding affinity against opiate receptor from rat neural membranes, using [3H]dihydromorphine as radioligand

CN1CCC23c4c5ccc(O)c4O[C@H]2C(O)C=C[C@@]3(NC(=O)CBr)C1C5 (some centres not stated)
IC50: 15 nM

CN1CCC23c4c5ccc(O)c4O[C@H]2C(=O)C=C[C@@]3(NC(=O)CBr)C1C5 (some centres not stated)
IC50: 10 nM
